According to patent publication US12139520B2 (priority 2020, dated 2024):
Numbered stars: 1 amine (or outer) side, 2 acyl side, 3 side chain; on linkers, the order of the positions; unused ones are H or OH. Bridge positions count the residues as written; N and C are the ends. Square brackets hold non-standard residues; d marks the D form. Side chains are listed from the residue outwards. Peptide text beside a SMILES is read from it. * marks the point of attachment. C20 diacid = O=C(O)CCCCCCCCCCCCCCCCCCC(=O)*; γGlu = O=C(O)[C@H](CCC(=O)[*:2])N[*:1]; Hyp = O=C(O)[C@@H]1C[C@@H](O)CN1; NMeI = CC[C@H](C)[C@H](NC)C(=O)O; Aad = N[C@@H](CCCC(=O)O)C(=O)O; AEEA = NCCOCCOCC(=O)O; Sar = CNCC(=O)O

Experiments:
hAMY3 receptor = molecular target: T1, hAMY3 receptor (Homo sapiens, UniProt O60896+P30988); experiment: cAMP assay for in vitro receptor activation, hAMY3-R; type: cell-based; conditions: cAMP assay, hAMY3 receptor; read-out: hAMY3R EC50
T1 sequence (P30988 25-474): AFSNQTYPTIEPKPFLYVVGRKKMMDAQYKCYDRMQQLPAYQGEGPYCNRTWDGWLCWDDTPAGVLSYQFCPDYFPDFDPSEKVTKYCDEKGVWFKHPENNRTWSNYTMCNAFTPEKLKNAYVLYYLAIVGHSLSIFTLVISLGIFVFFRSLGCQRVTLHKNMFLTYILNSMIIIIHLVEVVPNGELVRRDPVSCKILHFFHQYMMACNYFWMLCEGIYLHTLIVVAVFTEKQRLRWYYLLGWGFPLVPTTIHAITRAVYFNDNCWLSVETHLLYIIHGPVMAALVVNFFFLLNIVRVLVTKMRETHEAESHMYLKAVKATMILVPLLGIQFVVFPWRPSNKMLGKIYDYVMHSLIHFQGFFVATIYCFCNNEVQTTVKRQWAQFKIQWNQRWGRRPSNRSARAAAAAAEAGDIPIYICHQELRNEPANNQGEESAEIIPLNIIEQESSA
T1 sequence (O60896 24-148 partner): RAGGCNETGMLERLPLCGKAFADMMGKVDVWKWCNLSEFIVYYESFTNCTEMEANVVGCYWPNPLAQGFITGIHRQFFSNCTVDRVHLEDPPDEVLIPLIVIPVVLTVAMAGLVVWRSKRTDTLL
Outline: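 Monoclonal cell line stably overexpressing human AMY3 receptor, 2000 cells/well in DPBS with 0.05% casein and 0.5 mM IBMX. Stimulated 30 min at room temperature with graded compound doses, human amylin as positive control. cAMP accumulation read by TR-FRET after one hour.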

hAM1 receptor = hAM1 receptor (Homo sapiens, UniProt O60895+Q16602); experiment: cAMP assay for in vitro receptor activation, hAM1-R; type: cell-based; conditions: cAMP assay, hAM1 receptor; read-out: hAM1R EC50
Outline: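 Receptor activation, read as cAMP, was assessed in thawed cells of a monoclonal hAM1-overexpressing stable line, plated at 8000 cells/well in DPBS supplemented with 0.05% casein and 0.5 mM IBMX.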

Sequence of hAM1 receptor (Q16602 23-461): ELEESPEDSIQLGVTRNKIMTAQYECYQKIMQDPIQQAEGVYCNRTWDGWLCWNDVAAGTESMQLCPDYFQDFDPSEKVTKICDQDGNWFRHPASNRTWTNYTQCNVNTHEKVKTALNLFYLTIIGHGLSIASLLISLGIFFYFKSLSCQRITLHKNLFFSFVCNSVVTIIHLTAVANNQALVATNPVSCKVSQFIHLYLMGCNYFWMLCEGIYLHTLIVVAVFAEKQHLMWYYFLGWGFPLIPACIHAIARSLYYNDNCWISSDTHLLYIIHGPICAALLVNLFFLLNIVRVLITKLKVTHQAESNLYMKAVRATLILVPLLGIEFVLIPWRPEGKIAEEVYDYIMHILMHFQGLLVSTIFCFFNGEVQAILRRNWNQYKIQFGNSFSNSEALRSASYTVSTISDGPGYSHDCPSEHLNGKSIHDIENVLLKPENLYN
Sequence of hAM1 receptor (O60895 43-175 partner): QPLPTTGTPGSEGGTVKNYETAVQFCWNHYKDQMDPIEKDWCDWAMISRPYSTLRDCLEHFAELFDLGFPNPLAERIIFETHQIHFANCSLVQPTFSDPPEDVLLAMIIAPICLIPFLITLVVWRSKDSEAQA

| SMILES | EC50 (hAMY3 receptor) [nM] | EC50 (hAM1 receptor) [nM] |
| --- | --- | --- |
| CC[C@H](C)[C@H](NC(=O)[C@H](CCC(N)=O)NC(=O)[C@H](CC(=O)O)NC(=O)[C@H](C)NC(=O)[C@H](CC(C)C)NC(=O)[C@H](CCCNC(=N)N)NC(=O)[C@H](C)NC(=O)[C@@H](NC(=O)[C@@H](NC(=O)[C@@H]1CSSC[C@H](NC(=O)[C@@H](N)CCCCN)C(=O)N[C@@H](CC(N)=O)C(=O)N[C@@H]([C@@H](C)O)C(=O)N[C@@H](CO)C(=O)N[C@@H]([C@@H](C)O)C(=O)N1)[C@@H](C)O)C(C)C)C(=O)N[C@H](C(=O)N[C@@H](CCC(N)=O)C(=O)N[C@@H](Cc1ccccc1)C(=O)N[C@@H](CO)C(=O)N[C@@H](CC(=O)O)C(=O)N[C@@H](CCCCN)C(=O)N[C@@H](CC(=O)O)C(=O)N[C@@H](CCCCN)C(=O)N[C@@H](C)C(=O)N[C@@H](CC(N)=O)C(=O)N[C@H](C(=O)N[C@@H](CO)C(=O)N1CCC[C@H]1C(=O)N1CCC[C@H]1C(=O)N[C@H](C(=O)N[C@@H](CCC(=O)O)C(=O)N[C@H](C(=O)NCC(=O)N1CCC[C@H]1C(=O)N[C@@H](CC(N)=O)C(=O)N[C@@H](CO)C(=O)N1C[C@H](O)C[C@H]1C(N)=O)C(C)C)[C@@H](C)O)C(C)C)[C@@H](C)O [compound 15] (H-KCNTSTCTVARLADQITQFSDKDKANVSPPTEVGPNS[Hyp]-NH2; disulfide 2-7; N-terminus assumed) | 0.007 | > 5000 |
| CC[C@H](C)[C@H](NC(=O)[C@H](CCC(N)=O)NC(=O)[C@H](CCC(=O)O)NC(=O)[C@H](C)NC(=O)[C@H](CC(C)C)NC(=O)[C@H](CCCNC(=N)N)NC(=O)[C@H](CCC(N)=O)NC(=O)[C@@H](NC(=O)[C@@H](NC(=O)[C@@H]1CSSC[C@H](NC(=O)[C@@H](N)CCCCN)C(=O)N[C@@H](CC(N)=O)C(=O)N[C@@H]([C@@H](C)O)C(=O)N[C@@H](C)C(=O)N[C@@H]([C@@H](C)O)C(=O)N1)[C@@H](C)O)C(C)C)C(=O)N[C@@H](Cc1ccc(O)cc1)C(=O)N[C@@H](CCC(N)=O)C(=O)N[C@@H](Cc1ccccc1)C(=O)N[C@H](C(=O)N[C@@H](CC(=O)O)C(=O)N[C@@H](CCCCN)C(=O)N[C@@H](CC(=O)O)C(=O)N[C@@H](CCCCN)C(=O)N[C@@H](CC(=O)O)C(=O)N[C@@H](CCCCNC(=O)COCCOCCNC(=O)COCCOCCNC(=O)CC[C@H](NC(=O)CCCCCCCCCCCCCCCCCCC(=O)O)C(=O)O)C(=O)N[C@H](C(=O)N[C@@H](C)C(=O)N1CCC[C@H]1C(=O)N1CCC[C@H]1C(=O)N[C@H](C(=O)N[C@@H](CC(N)=O)C(=O)N[C@H](C(=O)NCC(=O)N[C@@H](CO)C(=O)N[C@@H](CC(N)=O)C(=O)NCC(=O)N1C[C@H](O)C[C@H]1C(N)=O)C(C)C)[C@@H](C)O)C(C)C)[C@@H](C)O [compound 41] (H-KCNTATCTVQRLAEQIYQFTDKDKDK([AEEA-AEEA-γGlu-C20 diacid])VAPPTNVGSNG[Hyp]-NH2; disulfide 2-7; N-terminus assumed) | 0.01 | > 5000 |
| CC[C@H](C)[C@H](NC(=O)[C@H](CCC(N)=O)NC(=O)[C@H](CCC(=O)O)NC(=O)[C@H](C)NC(=O)[C@H](CC(C)C)NC(=O)[C@H](CCCNC(=N)N)NC(=O)[C@H](CCC(N)=O)NC(=O)[C@@H](NC(=O)[C@@H](NC(=O)[C@@H]1CSSC[C@H](NC(=O)[C@H](CCCCN)NC(=O)CC[C@H](NC(=O)CCCCCCCCCCCCCCCCCCC(=O)O)C(=O)O)C(=O)N[C@@H](CC(N)=O)C(=O)N[C@@H]([C@@H](C)O)C(=O)N[C@@H](C)C(=O)N[C@@H]([C@@H](C)O)C(=O)N1)[C@@H](C)O)C(C)C)C(=O)N[C@@H](Cc1ccc(O)cc1)C(=O)N[C@@H](CCC(N)=O)C(=O)N[C@@H](Cc1ccccc1)C(=O)N[C@H](C(=O)N[C@@H](CC(=O)O)C(=O)N[C@@H](CCCCN)C(=O)N[C@@H](C)C(=O)N[C@@H](CCCCN)C(=O)N[C@@H](CC(=O)O)C(=O)N[C@@H](CC(N)=O)C(=O)N[C@H](C(=O)N[C@@H](C)C(=O)N1CCC[C@H]1C(=O)N1CCC[C@H]1C(=O)N[C@H](C(=O)N[C@@H](CC(N)=O)C(=O)N[C@H](C(=O)NCC(=O)N[C@@H](CO)C(=O)N[C@@H](CC(N)=O)C(=O)NCC(=O)N1C[C@H](O)C[C@H]1C(N)=O)C(C)C)[C@@H](C)O)C(C)C)[C@@H](C)O [compound 122] ({C20 diacid-γGlu}-KCNTATCTVQRLAEQIYQFTDKAKDNVAPPTNVGSNG[Hyp]-NH2; disulfide 2-7) | 0.026 | > 5000 |
| CC[C@H](C)[C@H](NC(=O)[C@H](CCC(N)=O)NC(=O)[C@H](Cc1c[nH]cn1)NC(=O)[C@H](C)NC(=O)[C@H](CC(C)C)NC(=O)[C@H](CCCNC(=N)N)NC(=O)[C@H](CCC(N)=O)NC(=O)[C@@H](NC(=O)[C@@H](NC(=O)[C@@H]1CSSC[C@H](NC(=O)[C@@H](N)CCCCN)C(=O)N[C@@H](CC(N)=O)C(=O)N[C@@H]([C@@H](C)O)C(=O)N[C@@H](C)C(=O)N[C@@H]([C@@H](C)O)C(=O)N1)[C@@H](C)O)C(C)C)C(=O)N[C@@H](Cc1ccc(O)cc1)C(=O)N[C@@H](CCC(N)=O)C(=O)N[C@@H](Cc1ccccc1)C(=O)N[C@H](C(=O)N[C@@H](CC(=O)O)C(=O)N[C@@H](CCCCN)C(=O)N[C@@H](CC(=O)O)C(=O)N[C@@H](CCCCN)C(=O)N[C@@H](CC(=O)O)C(=O)N[C@@H](CC(N)=O)C(=O)N[C@H](C(=O)N1CCC[C@H]1C(=O)N1CCC[C@H]1C(=O)N[C@H](C(=O)N[C@@H](CC(N)=O)C(=O)N[C@H](C(=O)NCC(=O)N[C@@H](CO)C(=O)N[C@@H](CC(N)=O)C(=O)NCC(=O)N1C[C@H](O)C[C@H]1C(N)=O)C(C)C)[C@@H](C)O)C(C)C)[C@@H](C)O [compound 30] (H-KCNTATCTVQRLAHQIYQFTDKDKDNVPPTNVGSNG[Hyp]-NH2; disulfide 2-7; N-terminus assumed) | 0.008 | > 5000 |
| CC[C@H](C)[C@@H](C(=O)N[C@@H](CC(C)C)C(=O)N[C@@H](CO)C(=O)N[C@@H](CO)C(=O)N[C@H](C(=O)N[C@@H](CCC(=O)O)C(=O)N[C@H](C(=O)NCC(=O)N[C@@H](CO)C(=O)N[C@@H](CC(N)=O)C(=O)N[C@H](C(=O)N1C[C@H](O)C[C@H]1C(N)=O)[C@@H](C)O)C(C)C)[C@@H](C)O)N(C)C(=O)[C@H](C)NC(=O)CN(C)C(=O)[C@H](Cc1ccccc1)NC(=O)[C@H](CO)NC(=O)[C@H](CO)NC(=O)[C@H](CCCNC(=N)N)NC(=O)[C@H](CCC(N)=O)NC(=O)[C@H](CC(C)C)NC(=O)[C@H](Cc1ccccc1)NC(=O)[C@H](CCCC(=O)O)NC(=O)[C@H](C)NC(=O)[C@H](CC(C)C)NC(=O)[C@H](CCCNC(=N)N)NC(=O)[C@H](CCC(=O)O)NC(=O)[C@@H](NC(=O)[C@H](C)NC(=O)[C@@H]1CSSC[C@H](NC(=O)[C@H](CCCNC(=N)N)NC(=O)CC[C@H](NC(=O)CCCCCCCCCCCCCCCCCCC(=O)O)C(=O)O)C(=O)NCC(=O)N[C@@H]([C@@H](C)O)C(=O)N[C@@H](C)C(=O)N[C@@H]([C@@H](C)O)C(=O)N1)[C@@H](C)O [compound 76] ({C20 diacid-γGlu}-RCGTATCATERLA[Aad]FLQRSSF[Sar]A[NMeI]LSSTEVGSNT[Hyp]-NH2; disulfide 2-7) | 0.014 | > 5000 |
| CC[C@H](C)[C@H](NC(=O)[C@H](CCC(N)=O)NC(=O)[C@H](Cc1c[nH]cn1)NC(=O)[C@H](C)NC(=O)[C@H](CC(C)C)NC(=O)[C@H](CCCNC(=N)N)NC(=O)[C@H](CC(N)=O)NC(=O)[C@@H](NC(=O)[C@@H](NC(=O)[C@@H]1CSSC[C@H](NC(=O)[C@H](CCCCN)NC(=O)CC[C@H](NC(=O)CCCCCCCCCCCCCCCCCCC(=O)O)C(=O)O)C(=O)N[C@@H](CC(N)=O)C(=O)N[C@@H]([C@@H](C)O)C(=O)N[C@@H](C)C(=O)N[C@@H]([C@@H](C)O)C(=O)N1)[C@@H](C)O)C(C)C)C(=O)N[C@@H](Cc1ccc(O)cc1)C(=O)N[C@@H](CCC(N)=O)C(=O)N[C@@H](Cc1ccccc1)C(=O)N[C@H](C(=O)N[C@@H](CC(=O)O)C(=O)N[C@@H](CCCCN)C(=O)N[C@@H](CC(=O)O)C(=O)N[C@@H](CCCCN)C(=O)N[C@@H](CC(=O)O)C(=O)N[C@@H](CC(N)=O)C(=O)N[C@H](C(=O)N[C@@H](C)C(=O)N1CCC[C@H]1C(=O)N1CCC[C@H]1C(=O)N[C@H](C(=O)N[C@@H](CC(N)=O)C(=O)N[C@H](C(=O)NCC(=O)N[C@@H](CO)C(=O)N[C@@H](CC(N)=O)C(=O)NCC(=O)N1C[C@H](O)C[C@H]1C(N)=O)C(C)C)[C@@H](C)O)C(C)C)[C@@H](C)O [compound 38] ({C20 diacid-γGlu}-KCNTATCTVNRLAHQIYQFTDKDKDNVAPPTNVGSNG[Hyp]-NH2; disulfide 2-7) | 0.01 | > 5000 |
